The values that follow are results of earlier work, collected in patent US20230149445A1, “OXIDATIVE STRESS INHIBITOR AND ANTIOXIDANT AGENT” (BOSQUET Silicon Corp., priority 2020, published 2023).

For the data set the following is noted: water at 25° C.

Turning to `[HH]` [hydrogen (H2), hydrogen], the “saturated solubility in water” value was 1.6 ppm.
